Experimental data as given in patent publication US12612411B1, “Imidazopyrazine derivatives, process for preparation thereof, and their uses as luciferins” (INSTITUT PASTEUR, priority 2017, dated 2026).

Assays:
[1] = Acidic hydrolysis of imidazo[1,2-a]pyrazin-3-yl acetate into the luciferin, LC/MS monitoring; assay type: physicochemical; conditions: DMSO / acidic ethanol (HCl), 50° C.
Procedure: FIG. 1 illustrates the HPLC profiles over time for the acetyl hydrolysis of P-21 (M=451) into the corresponding luciferin Q-12 (M=409). Obtained on an Agilent apparatus, with a 3.5 μm XDB-C18 column and a water/methanol gradient (containing 5 mM ammonium formate, from 95-5 to 5-95 in 3.5 min, 3.5 min at 5-95, and then back at 95-5 in 0.5 min), UV monitoring set at […].
(§1) General protocol for the generation of solutions of imidazo[1,2-a]pyrazin-3(7H)-one Q by acidic hydrolysis of imidazo[1,2-a]pyrazin-3-yl acetate derivatives P. The considered acetate P (1 mg) was dissolved in DMSO (0.2 mL) and then diluted by adding a solution of acidic ethanol (0.3 ml) made from the addition of 37% hydrochloric acid (100 μl) on 100% ethanol (12 mL). This 0.5 mL solution was incubated at 50° C. for 2 hours to give a stock solution which was then stored at −80° C. […] Nota: these conditions are only adapted to the hydrolysis of the protecting group (as defined above) of the oxygen on position 2 of the imidazo[1,2-a]pyrazine ring system and not to the hydrolysis of any additional acetyl groups eventually present elsewhere on the substrate of this reaction.

nanoKAZ luciferase = molecular target: T1, nanoKAZ luciferase (Oplophorus gracilirostris, UniProt Q9GV45, A31E/A60N/A81I/F95D/I117V/K70R/L54V/L99Q/M102K/N193R/P142E/Q151K/Q38R/Q45L/V71I/Y165I); experiment: In vitro bioluminescence screening of imidazo[1,2-a]pyrazin-3(7H)-ones with nanoKAZ expressed in vitro (96-well luminometer, 2 h kinetic); assay type: biochemical; conditions: furimazine = 1
T1 construct: luciferase catalytic domain (nanoKAZ, 19 kDa) from the Oplophorus-derived luciferase; host or cells: cell-free: 1-Step Human Coupled IVT Kit, pT7CFE1-based vector
Procedure: as §1
The representative bioluminescence curves shown in the FIG. 2 provided an assessment for furimazine (Q-1), 8-benzyl-2-(furan-2-ylmethyl)-6-(4-hydroxyphenyl)imidazo[1,2-a]pyrazin-3 (7/1)-one (Q-80), 8-(2-fluorobenzyl)-2-(furan-2-ylmethyl)-6-phenylimidazo[1,2-a]pyrazin-3(7H)-one (Q-84), and 8-(2-fluorobenzyl)-2-((5-methylfuran-2-yl)methyl)-6-phenylimidazo[1,2-a]pyrazin-3(7H)-one (Q-85) was obtained using a luciferase expressed in vitro as described in the following. The nanoKAZ DNA template was cloned into Thermo Scientific pT7CFE1-based vector and nanoKAZ was expressed using ThermoFisher Scientific 1-Step Human Coupled IVT Kit—DNA (ref. 88881) according to the manufacturer instructions. The resulting reaction mix was diluted 400 times in buffer (DPBS (Gibco)+0.1% (v/v) Tween 20) and conserved at −80° C. The screening of the imidazo[1,2-a]pyrazin-3(7H)-ones was performed in 96 well plates using 50 μL/well of a 1/20 dilution in DPBS (Gibco)+0.1% (v/v) Tween 20 of the nanoKAZ solution.
To illustrate the bioluminescence properties improvement achieved for many of the imidazo[1,2-a]pyrazin-3(7H)-ones described here, four values are provided in Table 1: maximum intensity (V1), signal half-life (V2), area under the curve for ten minutes (V3), and area under the curve for two hours (V4), normalized using furimazine (Q-1) as a reference.
The bioluminescence properties of the tested compounds are considered to be improved when at least one of the values V1-V4 is above 1, and when none of the V1-V4 values is 0.05 or below.
By following the hydrolysis protocol described above, the following imidazo[1,2-a]pyrazin-3(7H)-ones luciferins Q were made in situ from the corresponding O-protected imidazo[1,2-a]pyrazines P and evaluated for their bioluminescence properties (maximum intensity (V1), signal half-life (V2), area under the curve for […], normalized using furimazine (Q-1) as a reference): […]

nanoKAZ [2] = molecular target: T2, nanoKAZ (Oplophorus gracilirostris, UniProt Q9GV45, A31E/A60N/A81I/F95D/I117V/K70R/L54V/L99Q/M102K/N193R/P142E/Q151K/Q38R/Q45L/V71I/Y165I); experiment: Michaelis-Menten parameters of nanoKAZ from Lineweaver-Burk representation; assay type: biochemical
T2 construct: luciferase catalytic domain (nanoKAZ, 19 kDa) from the Oplophorus-derived luciferase
Text: The two dotted lines (linear regression) are converging to the same intercept with the x-axis (−1/Km) and different intercepts with the y-axis (1/Vmax). The equations of the two linear regressions are indicated and the corresponding correlation factors (R^2) with the experimental data are reported.
Considering the hypothesis of a Michaelis-Menten mechanism for the nanoKAZ, the Km and Vmax were extrapolated from the Lineweaver-Burk representation of the enzyme activity catalyzing either Q-1 or Q-3. […] The data have been fitted with linear regression with satisfying high correlation factors (R). The Km are the same for both substrates (Km=2 μM) whereas the Vmax is 3-times lower for Q-1 (0.6·10^6 RLU/sec) than for Q-3 (2.0·10^6 RLU/sec).

[3] = system: protein chimeras fused to the nanoKAZ in transiently transfected HEK and Jurkat cell lines, and primary human T-cells; experiment: In cellulo bioluminescence imaging with a light microscope; assay type: cell-based; conditions: nanoKAZ/furimazine versus nanoKAZ/Q-3
Text: FIG. 5 compares expression and location of protein chimeras fused to the nanoKAZ in transiently transfected HEK and Jurkat cell lines, and primary human T-cells: the cytokine receptor IL7Rα:nanoKAZ at the membrane (top), the enconsin tubulin binding protein EMTB:nanoKAZ associated with microtubules (middle), the transcription factor STAT5a:nanoKAZ dense throughout the cytoplasm and faint in the nucleus (bottom).
The acquisition of bioluminescence using a light microscope provides a quantitative measurement of light emission cell by cell, the main advantage. This is meaningful especially when the transfection efficiency is low in the case of nanoKAZ expression provided by plasmids. […] The higher is the bioluminescence efficiency, the lower is the exposure time and the lower is the sensitivity required for the detector or camera. NanoKAZ with developed substrates such as Q-3 or Q-12 opens the bioluminescence imaging to standard light microscope. The lower the exposure time, the higher the resolution, which is impeded by the motion of living cells. Any gain in light emission enhances the quality of images. Luciferase reporters or fragments can be fused to proteins targeting the cell surface, cytoplasm, organelles, nucleus or exosomes and can be carried by virus, host-infecting cells or agents, biologic complexes, beads or any particles. […]

nanoKAZ [4] = molecular target: T2, nanoKAZ; experiment: Bioluminescence emission spectra; assay type: biochemical
Text: Furimazine (Q-1) and derivatives have emission spectra centred on 460 nm but present large peaks bleeding beyond 580 nm. The bioluminescence obtained with the analogue Q-3 provides photons with 10% of them having a wavelength beyond 560 nm up to 600 nm. This wide spectra emission toward red is thus allowing the use of the nanok AZ/furimazine for in vivo imaging. The light emission beyond 580 is thousands times higher than red emitting firefly or beetle luciferases. IL7:nanoKAZ and analogue Q-3 were injected in mice.

[5] = cited from earlier work; for storage stability: commercially available luciferins; for permitted storage time at 4° C.: recommended storage conditions
[6] = second table, luciferins made in situ from O-protected P

T1 sequence (Q9GV45 other isoform, or with tags, fused parts or gaps with the stated changes): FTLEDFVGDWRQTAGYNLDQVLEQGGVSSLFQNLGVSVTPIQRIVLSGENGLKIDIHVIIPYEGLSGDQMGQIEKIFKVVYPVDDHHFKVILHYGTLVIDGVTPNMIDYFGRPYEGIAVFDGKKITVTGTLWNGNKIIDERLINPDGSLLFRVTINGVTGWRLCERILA
T2 sequence (Q9GV45 other isoform, or with tags, fused parts or gaps with the stated changes): as above

SMILES | V3: area under the curve for 2 hours, normalized using furimazine (Q-1) as a reference (nanoKAZ luciferase; second table) | V4: area under the curve for ten minutes, normalized using furimazine (Q-1) as a reference (nanoKAZ luciferase; second table) | V1: maximum intensity, normalized using furimazine (Q-1) as a reference (nanoKAZ luciferase; [6]) | also measured
CCc1ccc(Cc2nc3c(Cc4ccccc4)nc(-c4ccccc4)cn3c2OC(C)=O)o1 [P-21, 8-Benzyl-2-((5-ethylfuran-2-yl)methyl)-6-phenylimidazo[1,2-a]pyrazin-3-yl acetate] | – | – | – | time to complete hydrolysis into the luciferin Q-12 [1]: complete reaction in less than two hours
O=c1c(Cc2ccco2)nc2c(Cc3ccccc3)[nH]c(-c3ccccc3)cn1-2 [Q-1, 8-benzyl-2-(furan-2-ylmethyl)-6-phenylimidazo[1,2-a]pyrazin-3(7H)-one, reference compound] | 1 | 1 | 1 | V1: maximum intensity, normalized using furimazine (Q-1) as a reference (nanoKAZ luciferase; Table 1): 1; V3: area under the curve for ten minutes, normalized using furimazine (Q-1) as a reference (nanoKAZ luciferase; Table 1): 1; V4: area under the curve for two hours, normalized using furimazine (Q-1) as a reference (nanoKAZ luciferase; Table 1): 1; Vmax, times lower than for Q-3 (nanoKAZ [2]; Q-1 versus Q-3): 3 times; Vmax (nanoKAZ [2]; extrapolated from Lineweaver-Burk, constant enzyme concentration): 0.6·10^6 RLU/sec; extension of experience times to get the same quality as with nanoKAZ/analogue Q-3 [3]: 3 folds; emission spectra centre (nanoKAZ [4]): 460 nm; storage stability [5]: very weak storage stability; permitted storage time at 4° C. [5]: up to two weeks only
O=c1c(Cc2ccc(O)cc2)nc2c(Cc3ccccc3)[nH]c(-c3ccc(O)cc3)cn1-2 [Q-86, 8-benzyl-2-(4-hydroxybenzyl)-6-(4-hydroxyphenyl)imidazo[1,2-a]pyrazin-3(7H)-one, reference compound] | – | – | – | V1: maximum intensity, normalized using furimazine (Q-1) as a reference (nanoKAZ luciferase; Table 1): 0.09; V3: area under the curve for ten minutes, normalized using furimazine (Q-1) as a reference (nanoKAZ luciferase; Table 1): 0.08; V4: area under the curve for two hours, normalized using furimazine (Q-1) as a reference (nanoKAZ luciferase; Table 1): 0.07; storage stability [5]: very weak storage stability; permitted storage time at 4° C. [5]: up to two weeks only
Cc1cc(Cc2nc3c(Cc4ccccc4F)[nH]c(-c4ccccc4)cn-3c2=O)oc1C [Q-131, 2-((4,5-dimethylfuran-2-yl)methyl)-8-(2-fluorobenzyl)-6-phenylimidazo[1,2-a]pyrazin-3(7H)-one] | 1.9 | 1.02 | 2.01 | –
Cc1cc(Cc2nc3c(Cc4cccc(F)c4)[nH]c(-c4ccccc4)cn-3c2=O)oc1C [Q-132, 2-((4,5-dimethylfuran-2-yl)methyl)-8-(3-fluorobenzyl)-6-phenylimidazo[1,2-a]pyrazin-3(7H)-one] | 1.44 | 1 | 1.5 | –
CCCc1ccc(Cc2nc3c(Cc4ccccc4)[nH]c(-c4ccccc4)cn-3c2=O)o1 [Q-133, 8-benzyl-6-phenyl-2-((5-propylfuran-2-yl)methyl)imidazo[1,2-a]pyrazin-3(7H)-one] | 1.23 | 1.33 | 1.26 | –
CCc1cc(Cc2nc3c(Cc4cccc(F)c4F)[nH]c(-c4ccccc4)cn-3c2=O)oc1C [Q-135, 8-(2,3-difluorobenzyl)-2-((4-ethyl-5-methylfuran-2-yl)methyl)-6-phenylimidazo[1,2-a]pyrazin-3(7H)-one] | 0.51 | 1.19 | 1.26 | –
CCc1oc(Cc2nc3c(Cc4cccc(F)c4F)[nH]c(-c4ccccc4)cn-3c2=O)cc1C [Q-143, 8-(2,3-difluorobenzyl)-2-((5-ethyl-4-methylfuran-2-yl)methyl)-6-phenylimidazo[1,2-a]pyrazin-3(7H)-one] | 0.39 | 1.34 | 1.43 | –
O=c1c(Cc2ccco2)nc2c(Cc3ccccc3)[nH]c(-c3cccc(O)c3)cn1-2 [Q-149, 8-benzyl-2-(furan-2-ylmethyl)-6-(3-hydroxyphenyl)imidazo[1,2-a]pyrazin-3(7H)-one] | 0.85 | 1.05 | 1.12 | –
